From patent US20050197338A1, “Substituted pyrazole urea compounds for the treatment of inflammation” (priority 2003, published 2005)

Biological target: T1, human IKK-2 (rhIKK-2 homodimer) (Homo sapiens, UniProt O14920)
T1 construct: FLAG (DYKDDDDKD) (C); made in house; host or cells: insect cells (baculovirus, pFastBac)
T1 sequence (O14920 1-756): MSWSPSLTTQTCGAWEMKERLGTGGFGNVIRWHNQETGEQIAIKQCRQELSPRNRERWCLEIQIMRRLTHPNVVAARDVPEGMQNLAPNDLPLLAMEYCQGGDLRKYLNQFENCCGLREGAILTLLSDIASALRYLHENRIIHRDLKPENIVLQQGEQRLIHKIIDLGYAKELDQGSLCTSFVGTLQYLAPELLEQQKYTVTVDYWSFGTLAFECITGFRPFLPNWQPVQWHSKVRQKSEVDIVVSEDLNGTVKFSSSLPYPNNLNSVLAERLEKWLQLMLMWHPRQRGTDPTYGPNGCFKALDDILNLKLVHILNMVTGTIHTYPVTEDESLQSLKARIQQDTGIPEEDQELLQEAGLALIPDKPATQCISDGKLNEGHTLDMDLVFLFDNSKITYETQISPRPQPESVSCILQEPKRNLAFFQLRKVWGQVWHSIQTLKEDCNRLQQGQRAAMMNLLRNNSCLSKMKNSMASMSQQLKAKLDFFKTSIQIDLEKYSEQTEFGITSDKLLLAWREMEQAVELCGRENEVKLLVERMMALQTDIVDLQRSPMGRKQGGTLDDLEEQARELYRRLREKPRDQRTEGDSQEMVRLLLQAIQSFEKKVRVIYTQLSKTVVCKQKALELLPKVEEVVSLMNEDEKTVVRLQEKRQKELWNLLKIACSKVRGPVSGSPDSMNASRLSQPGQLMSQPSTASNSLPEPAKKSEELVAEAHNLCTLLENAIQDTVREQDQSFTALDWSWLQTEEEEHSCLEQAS
Assay: IKK-2 Resin Enzyme Assay (Human IKK-2 Enzyme Assay)
Assay type: biochemical
Conditions: not given
Procedure, shortened: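 C-terminally FLAG-tagged human IKK-2 homodimer, baculovirus-expressed in insect cells and anti-FLAG purified. Reaction mix: 5 μM biotinylated IκBα peptide (Ser32/Ser36 region), 1 μM ATP with [γ-33P]ATP, 2 mM MgCl2, 2 mM MnCl2, 10 mM NaF, 1 mM DTT, 25 mM HEPES pH 7.6. Incubated 30 min at 25 °C; IC50 derived.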

With NC(=O)Nc1cn(-c2cccc(-c3ccc(C(=O)N4CCC(=O)CC4)cc3)c2)nc1C(N)=O [Example 90, 4-[(aminocarbonyl)amino]-1-{4′-[(4-oxopiperidin-1-yl)carbonyl]-1,1′-biphenyl-3-yl}-1H-pyrazole-3-carboxamide] the IC50 was 2.81 µM.

Same assay, conditions: human IKK-2, resin enzyme assay; read-out: IC50 (μM) hIKK-2

Compared with CCNC(=O)COc1cccc(-c2ccc(-n3cc(NC(N)=O)c(C(N)=O)n3)cc2)c1 [Example 335, 4-[(aminocarbonyl)amino]-1-{3′-[2-(ethylamino)-2-oxoethoxy]-1, 1′-biphenyl-4-yl}-1H-pyrazole-3-carboxamide], CNC(=O)COc1cccc(-c2ccc(-n3cc(NC(N)=O)c(C(N)=O)n3)cc2)c1 [Example 383, 4-[(aminocarbonyl)amino]-1-{3′-[2-(methylamino)-2-oxoethoxy]-1,1′-biphenyl-4-yl}-1H-pyrazole-3-carboxamide] is 3-fold lower in IC50: 0.21 µM for the first, 0.07 µM for the second.

NC(=O)Nc1cn(-c2ccc(-c3ccc(F)cc3)cc2)nc1C(N)=O [Example 25, 4-[(aminocarbonyl)amino]-1-(4′-fluoro-1,1′-biphenyl-4-yl)-1H-pyrazole-3-carboxamide] and NC(=O)Nc1cn(-c2ccc(-c3ccc(O)cc3)cc2)nc1C(N)=O [Example 36, 4-[(aminocarbonyl)amino]-1-(4′-hydroxy-1,1′-biphenyl-4-yl)-1H-pyrazole-3-carboxamide] are within 1.5-fold of each other in IC50: 1.55 µM for the first, 1.63 µM for the second.

NC(=O)Nc1cn(-c2ccc(Sc3ccccc3O)cc2)nc1C(N)=O [Example 208, 1-(1-(4-(2-hydroxyphenylthio)phenyl)-3-carbamoyl-1H-pyrazol-4-yl)urea] and NC(=O)Nc1cn(-c2ccc(S(=O)(=O)c3ccccc3O)cc2)nc1C(N)=O [Example 288, 1-(1-(4-(2-hydroxyphenylsulfonyl)phenyl)-3-carbamoyl-1H-pyrazol-4-yl)urea] are within 1.5-fold of each other in IC50: 0.328 µM for the first, 0.252 µM for the second.

First: NC(=O)Nc1cn(-c2ccc3c(c2)OCO3)nc1C(N)=O [Example 213, 4-[(aminocarbonyl)amino]-1-(1,3-benzodioxol-5-yl)-1H-pyrazole-3-carboxamide]
Second: NC(=O)Nc1cn(-c2ccc(Cl)c(Cl)c2)nc1C(N)=O [Example 188, 4-[(aminocarbonyl)amino]-1-(3,4-dichlorophenyl)-1H-pyrazole-3-carboxamide]
The IC50 of the first is 8.5-fold higher: 3.91 µM for the first, 0.46 µM for the second. The second is the more potent here.

Going from NC(=O)Nc1cn(-c2ccc(-c3cccc(C(=O)O)c3)cc2)nc1C(N)=O [Example 96, 4′-{3-(aminocarbonyl)-4-[(aminocarbonyl)amino]-1H-pyrazol-1-yl}-1,1′-biphenyl-3-carboxylic acid] to NC(=O)Nc1cn(-c2ccc(-c3ccc(C(=O)O)cc3)cc2)nc1C(N)=O [Example 142, 4′-{3-(aminocarbonyl)-4-[(aminocarbonyl)amino]-1H-pyrazol-1-yl}-1,1′-biphenyl-4-carboxylic acid], the IC50 falls from 1.45 µM to 0.17 µM (8.5-fold). The second is the more potent here.

Going from CS(=O)(=O)c1ccc(-c2cccc(-n3cc(NC(N)=O)c(C(N)=O)n3)c2)cc1 [Example 374, 4-[(aminocarbonyl)amino]-1-[4′-(methylsulfonyl)-1,1′-biphenyl-3-yl]-1H-pyrazole-3-carboxamide] to CC(C)c1ccc(-c2cccc(-n3cc(NC(N)=O)c(C(N)=O)n3)c2)cc1 [Example 353, 4-[(aminocarbonyl)amino]-1-(4′-isopropyl-1,1′-biphenyl-3-yl)-1H-pyrazole-3-carboxamide], the IC50 rises from 0.544 µM to over 20 µM. The first is the more potent here.

CC(=O)c1cccc(-c2cccc(-n3cc(NC(N)=O)c(C(N)=O)n3)c2)c1 [Example 351, 1-(3′-acetyl-1,1′-biphenyl-3-yl)-4-[(aminocarbonyl)amino]-1H-pyrazole-3-carboxamide] and CCOc1cccc(-c2cccc(-n3cc(NC(N)=O)c(C(N)=O)n3)c2)c1 [Example 354, 4-[(aminocarbonyl)amino]-1-(3′-ethoxy-1,1′-biphenyl-3-yl)-1H-pyrazole-3-carboxamide] cannot be ordered by IC50: over 20 µM for the first, over 20 µM for the second.

Compared with NC(=O)Nc1cn(-c2ccc(Sc3ccncc3)cc2)nc1C(N)=O [Example 206, 1-(3-carbamoyl-1-(4-(pyridin-4-ylthio)phenyl)-1H-pyrazol-4-yl)urea], Cc1cc(-n2cc(NC(N)=O)c(C(N)=O)n2)ccc1Sc1ccc(F)cc1 [Example 297, 1-[4-(4-fluoro-phenylsulfanyl)-3-methyl-phenyl]-4-ureido-1H-pyrazole-3-carboxylic acid amide] is 38-fold higher in IC50: 0.0514 µM for the first, 1.94 µM for the second.

Compared with CCc1cc(Br)ccc1N/N=C(\C#N)C(N)=O [Example 277, (2E)-2-[(4-bromo-2-ethylphenyl)hydrazono]-2-cyanoacetamide], Cc1cc(-n2cc(NC(N)=O)c(C(N)=O)n2)ccn1 [Example 322, 4-[(aminocarbonyl)amino]-1-(2-methylpyridin-4-yl)-1H-pyrazole-3-carboxamide] is 3.5-fold lower in IC50: 7.59 µM for the first, 2.19 µM for the second.

Compared with NC(=O)Nc1nn(-c2ccc(-c3cccc(F)c3F)cc2)cc1C(N)=O [Example 112], CCCCc1ccc(-c2ccc(-n3cc(C(N)=O)c(NC(N)=O)n3)cc2)cc1 [Example 128] is higher in IC50: 1.99 µM for the first, over 20 µM for the second.

Going from NC(=O)Nc1cn(-c2cccc(-c3ccccc3O)c2)nc1C(N)=O [Example 71, 4-[(aminocarbonyl)amino]-1-(2′-hydroxy-1,1′-biphenyl-3-yl)-1H-pyrazole-3-carboxamide] to NC(=O)Nc1cn(-c2cccc(-c3ccccc3)c2)nc1C(N)=O [Example 339, 4-[(aminocarbonyl)amino]-1-(1,1′-biphenyl-3-yl)-1H-pyrazole-3-carboxamide], the IC50 rises from 2.25 µM to over 20 µM. The first is the more potent here.

Going from NC(=O)Nc1cn(-c2ccc(C(=O)N3CCOCC3)cc2)nc1C(N)=O [Example 9, 4-[(aminocarbonyl)amino]-1-[4-(morpholin-4-yl-carbonyl)phenyl]-1H-pyrazole-3-carboxamide] to NC(=O)Nc1cn(-c2ccc(-c3ccc(C(N)=O)c(F)c3)cc2)nc1C(N)=O [Example 183, 4-[(aminocarbonyl)amino]-1-[4′-(aminocarbonyl)-3′-fluoro-1,1′-biphenyl-4-yl]-1H-pyrazole-3-carboxamide], the IC50 falls from 1.43 µM to 0.13 µM (11-fold).

Going from CC(=O)OCc1cccc(-c2ccc(-n3cc(NC(N)=O)c(C(N)=O)n3)cc2)c1 [Example 165, 4′-{3-(aminocarbonyl)-4-[(aminocarbonyl)amino]-1H-pyrazol-1-yl}-1,1′-biphenyl-3-yl)methyl acetate] to CC(C)(C)c1ccc(-c2cccc(-n3cc(NC(N)=O)c(C(N)=O)n3)c2)cc1 [Example 362, 4-[(aminocarbonyl)amino]-1-(4′-tert-butyl-1,1′-biphenyl-3-yl)-1H-pyrazole-3-carboxamide], the IC50 rises from 5.99 µM to over 20 µM. The first is the more potent here.

Compared with NC(=O)Nc1cn(-c2ccc(S(=O)(=O)c3ccccn3)cc2)nc1C(N)=O [Example 286, 1-(3-carbamoyl-1-(4-(pyridin-2-ylsulfonyl)phenyl)-1H-pyrazol-4-yl)urea], NC(=O)Nc1cn(-c2ccc([S+]([O-])c3ccc(F)cc3)cc2)nc1C(N)=O (stereo not drawn) [Example 200, 1-(1-(4-(4-fluorophenylsulfinyl)phenyl)-3-carbamoyl-1H-pyrazol-4-yl)urea] is 2-fold lower in IC50: 0.663 µM for the first, 0.326 µM for the second. The second is the more potent here.

First: NC(=O)Nc1cn(-c2cccc(-c3ccc(C(F)(F)F)cc3)c2)nc1C(N)=O [Example 368, 4-[(aminocarbonyl)amino]-1-[4′-(trifluoromethyl)-1,1′-biphenyl-3-yl]-1H-pyrazole-3-carboxamide]
Second: NC(=O)Nc1cn(-c2cccc(-c3ccc(C(=O)NC4CC4)cc3)c2)nc1C(N)=O [Example 80, 4-[(aminocarbonyl)amino]-1-{4′-[(cyclopropylamino)carbonyl]-1,1′-biphenyl-3-yl}-1H-pyrazole-3-carboxamide]
The IC50 of the first is higher: over 20 µM for the first, 0.6 µM for the second.

NC(=O)Nc1cn(-c2ccc(-c3ccccc3O)c(F)c2)nc1C(N)=O [Example 261, 4-[(aminocarbonyl)amino]-1-(2-fluoro-2′-hydroxy-1,1′-biphenyl-4-yl)-1H-pyrazole-3-carboxamide] and N#CCOc1cccc(-c2ccc(-n3cc(NC(N)=O)c(C(N)=O)n3)cc2F)c1 [Example 227, 4-[(aminocarbonyl)amino]-1-[3′-(cyanomethoxy)-2-fluoro-1,1′-biphenyl-4-yl]-1H-pyrazole-3-carboxamide] are within 1.5-fold of each other in IC50: 1.18 µM for the first, 1.53 µM for the second.

Compared with Cc1cc(O)ccc1-c1cccc(-n2cc(NC(N)=O)c(C(N)=O)n2)c1 [Example 89, 4-[(aminocarbonyl)amino]-1-(4′-hydroxy-2′-methyl-1,1′-biphenyl-3-yl)-1H-pyrazole-3-carboxamide], NC(=O)Nc1cn(-c2cccc(-c3cc(Cl)cc(Cl)c3)c2)nc1C(N)=O [Example 370, 4-[(aminocarbonyl)amino]-1-(3′,5′-dichloro-1,1′-biphenyl-3-yl)-1H-pyrazole-3-carboxamide] is higher in IC50: 0.7 µM for the first, over 20 µM for the second.

CCCCCc1ccc(-c2ccc(-n3cc(C(N)=O)c(NC(N)=O)n3)cc2)cc1 [Example 138] was tested, and the IC50 was over 20 µM.
